In ChEMBL document CHEMBL1128948, “Novel thrombin inhibitors that are based on a macrocyclic tripeptide motif” (Bioorg Med Chem Lett, 1996):

Each compound was assayed against T1, Prothrombin (Homo sapiens, UniProt P00734) (assay: Compound was evaluated for inhibition of human thrombin at a concentration of 50 uM; Not active).

Row | Ki | SMILES
1 | Not Active | N=C(N)NCCC[C@H]1NC(=O)[C@H]2CCCN2C(=O)[C@H](CCc2ccccc2)NC(=O)CCCCCCCNC(=O)C1O (stereo not given in full)

The compounds below were run against T1, Prothrombin (assay: Inhibition of human thrombin).

Row | Ki | SMILES
2 | 3.1 nM | N=C(N)NCCC[C@H]1NC(=O)[C@H]2CCCN2C(=O)[C@H](Cc2ccccc2)NC(=O)CCCCCNC(=O)[C@H](CCc2ccccc2)NC(=O)C1=O (single isomer, unassigned)
3 | 5.3 nM | N=C(N)NCCC[C@H]1NC(=O)[C@H]2CCCN2C(=O)[C@H](Cc2ccccc2)NC(=O)CCCCCNC(=O)[C@H](CC(c2ccccc2)c2ccccc2)NC(=O)C1=O (single isomer, unassigned)
4 | 1800 nM | N=C(N)NCCC[C@H]1NC(=O)[C@H]2CCCN2C(=O)[C@H](Cc2ccccc2)NC(=O)CCCCCCNC(=O)C1=O (single isomer, unassigned)
5 | 473 nM | N=C(N)NCCC[C@H]1NC(=O)[C@H]2CCCN2C(=O)[C@H](Cc2ccccc2)NC(=O)CCCCCNC(=O)C1=O (single isomer, unassigned)
6 | 4.1 nM | N=C(N)NCCC[C@H]1NC(=O)[C@H]2CCCN2C(=O)[C@H](NC=O)CNC(=O)/C=C\[C@@H](Cc2ccc(O)cc2)NC(=O)[C@H](Cc2ccccc2)NC(=O)C1=O [MACROCYCLIC TRIPEPTIDE MOTIF]

Second part, the compound before the results:

Row | SMILES | Ki
7 | COC1C[C@@H]2C(=O)N[C@H](CCCN=C(N)N)C(=O)C(=O)NCCCCCCCC(=O)N[C@@H](Cc3ccccc3)C(=O)N2C1 (stereo not given in full) | 159 nM
8 | N=C(N)NCCC[C@H]1NC(=O)[C@H]2CCCN2C(=O)[C@H](Cc2ccccc2)NC(=O)CCCCCCCCCCNC(=O)C1=O (single isomer, unassigned) | 15 nM
9 | N=C(N)NCCC[C@H]1NC(=O)[C@H]2CCCN2C(=O)[C@H](Cc2ccccc2)NC(=O)CCCCCCCNC(=O)C1=O (single isomer, unassigned) | 24 nM
10 | N=C(N)NCCC[C@H]1NC(=O)[C@H]2CCCN2C(=O)[C@H](Cc2ccccc2)NC(=O)CCCCCCCCCNC(=O)C1=O (single isomer, unassigned) | 9.9 nM
11 | N=C(N)NCCC[C@H]1NC(=O)[C@H]2CCCCN2C(=O)[C@H](Cc2ccccc2)NC(=O)CCCCCCCNC(=O)C1=O (single isomer, unassigned) | 86 nM
12 | N=C(N)NCCC[C@H]1NC(=O)[C@H]2CCCN2C(=O)[C@H](c2ccccc2)NC(=O)CCCCCCCNC(=O)C1=O (single isomer, unassigned) | 163 nM
13 | N=C(N)NCCC[C@H]1NC(=O)[C@H]2CCCN2C(=O)[C@H](CCc2ccccc2)NC(=O)CCCCCCCNC(=O)C1=O (single isomer, unassigned) | 20 nM

These compounds were tested against T2, Serine protease 1 (Bos taurus, UniProt P00760) (assay: Inhibition of bovine trypsin).
T2 sequence (P00760 whole entry): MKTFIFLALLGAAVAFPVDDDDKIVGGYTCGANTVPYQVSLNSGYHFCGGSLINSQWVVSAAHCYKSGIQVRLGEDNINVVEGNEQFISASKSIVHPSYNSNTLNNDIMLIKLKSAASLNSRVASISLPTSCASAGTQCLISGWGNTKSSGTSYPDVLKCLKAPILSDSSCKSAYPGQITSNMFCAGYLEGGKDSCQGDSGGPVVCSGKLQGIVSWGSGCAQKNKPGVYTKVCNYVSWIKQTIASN

Row | Ki | SMILES
14 | 10 nM | N=C(N)NCCC[C@@H]1NC(=O)[C@@H]2CCCN2C(=O)[C@@H](Cc2ccccc2)NC(=O)CCCCCCCNC(=O)C1=O (single isomer, unassigned)
15 | 5.2 nM | N=C(N)NCCC[C@@H]1NC(=O)[C@@H]2CCCN2C(=O)[C@@H](Cc2ccccc2)NC(=O)CCCCCNC(=O)[C@@H](CCc2ccccc2)NC(=O)C1=O (single isomer, unassigned)
16 | 2.1 nM | N=C(N)NCCC[C@@H]1NC(=O)[C@@H]2CCCN2C(=O)[C@@H](Cc2ccccc2)NC(=O)CCCCCCCCCNC(=O)C1=O (single isomer, unassigned)
17 | 2.5 nM | N=C(N)NCCC[C@@H]1NC(=O)[C@@H]2CCCN2C(=O)[C@@H](Cc2ccccc2)NC(=O)CCCCCNC(=O)[C@@H](CC(c2ccccc2)c2ccccc2)NC(=O)C1=O (single isomer, unassigned)
18 | 66 nM | N=C(N)NCCC[C@@H]1NC(=O)[C@@H]2CCCCN2C(=O)[C@@H](Cc2ccccc2)NC(=O)CCCCCCCNC(=O)C1=O (single isomer, unassigned)
19 | 280 nM | N=C(N)NCCC[C@@H]1NC(=O)[C@@H]2CCCN2C(=O)[C@@H](Cc2ccccc2)NC(=O)CCCCCCNC(=O)C1=O (single isomer, unassigned)
20 | 710 nM | N=C(N)NCCC[C@@H]1NC(=O)[C@@H]2CCCN2C(=O)[C@@H](Cc2ccccc2)NC(=O)CCCCCNC(=O)C1=O (single isomer, unassigned)
21 | 14 nM | N=C(N)NCCC[C@@H]1NC(=O)[C@@H]2CCCN2C(=O)[C@@H](CCc2ccccc2)NC(=O)CCCCCCCNC(=O)C1=O (single isomer, unassigned)
22 | 1 nM | N=C(N)NCCC[C@@H]1NC(=O)[C@@H]2CCCN2C(=O)[C@@H](NC=O)CNC(=O)/C=C\[C@@H](Cc2ccc(O)cc2)NC(=O)[C@@H](Cc2ccccc2)NC(=O)C1=O [MACROCYCLIC TRIPEPTIDE MOTIF]

The remaining lines, values behind:

Row | SMILES | Ki
23 | COC1C[C@@H]2C(=O)N[C@H](CCCN=C(N)N)C(=O)C(=O)NCCCCCCCC(=O)N[C@@H](Cc3ccccc3)C(=O)N2C1 (stereo not given in full) | 13 nM
24 | N=C(N)NCCC[C@@H]1NC(=O)[C@@H]2CCCN2C(=O)[C@@H](Cc2ccccc2)NC(=O)CCCCCCCCCCNC(=O)C1=O (single isomer, unassigned) | 25 nM
25 | N=C(N)NCCC[C@@H]1NC(=O)[C@@H]2CCCN2C(=O)[C@@H](c2ccccc2)NC(=O)CCCCCCCNC(=O)C1=O (single isomer, unassigned) | 11 nM
